In patent US20160106821A1, “FUNCTIONAL GHRELIN RECEPTOR ANTAGONISM DURING PREGNANCY TO PREVENT STRESS-ASSOCIATED MENTAL ILLNESS IN OFFSPRING AND MOTHERS” (Massachusetts Institute of Technology, priority 2014, published 2016):

Legend:
post-partum mothers = assay: Depressive behaviors in post-partum mothers; assay type: in vivo; details: MK-0677 treatment vs vehicle control (FIG. 1)
Excerpt: FIG. 1 is a graph depicting depressive behaviors in post-partum mothers. […] The data is shown in Figure, a bar graph depicting depressive behaviors in post-partum mothers in response to vehicle control of MK-0677 treatment. Experiments were designed to determine the effects of elevated ghrelin activity on the fetus.

offspring = assay: Anhedonia (sucrose preference) in offspring after perinatal / in-womb exposure; assay type: in vivo
Excerpt: FIG. 2 is a diagram depicting the protocol for analysis of babies following birth. FIG. 3 depicts the design of the study with protocols involving vehicle control, low MK0677 or high MK0677 treatment. FIG. 4 is a graph depicting the effects of perinatal exposure to MK0677 on female (dark bar) versus male (lighter gray bar) offspring. V refers to a vehicle control. H refers to high MK0677 exposure levels. FIG. 5 is a graph depicting the effects of exposure to MK0677 in the womb on offspring. The first set of experiments was designed to determine the degree of anhedonia in offspring when raised by an MK-treated mom. Anhedonia is the inability of a subject to experience pleasure from activities usually found enjoyable. A first experiment was conducted to show the effects of perinatal exposure to MK0677 on female versus male offspring. V refers to a vehicle control. H refers to high MK0677 exposure levels. […] Additionally the foster mother had no effect. […] Another study involved determining the effects of exposure to MK0677 in the womb on offspring.

CC(C)(N)C(=O)N[C@H](COCc1ccccc1)C(=O)N1CCC2(CC1)CN(S(C)(=O)=O)c1ccccc12 [MK-0677]
maternal depressive behaviors (post-partum mothers): enhanced maternal depressive behaviors
sucrose preference in offspring (offspring; offspring from mothers exposed to high MK levels (n=11) vs controls (n=12), t-test, p=0.03 (FIG. 5)): significantly lower compared to controls
degree of anhedonia in offspring: female versus male response (offspring; perinatal exposure, high MK0677 vs vehicle, female versus male offspring (FIG. 4)): no difference was seen between the response of male and female babies
degree of anhedonia in offspring: foster versus biological mother (offspring; perinatal exposure, high MK0677 vs vehicle, foster mother had no effect (FIG. 4)): an influence was observed for the biological mother
preference of sucrose solution to water (vs. 50%) (offspring; pups from MK mothers, pups from vehicle-treated mothers significantly preferred sucrose (p=0.046 vs. 50%)): did not
